Results reported in the CheMixHub viscosity set.
“And” between values parts separate entries of the source, which are not always exact repeats. Identical values can stand only once.

Assay: xn = mol fraction of the nth substance listed

CS(C)=O + O
Conditions	viscosity
303.15 K, 101 kPa, x1 = 0.01869	0.91 mPa·s
303.15 K, 101 kPa, x1 = 0.0406	1.05 mPa·s
303.15 K, 101 kPa, x1 = 0.05	1.176 mPa·s
303.15 K, 101 kPa, x1 = 0.15	2.183 mPa·s
303.15 K, 101 kPa, x1 = 0.25	2.978 mPa·s
303.15 K, 101 kPa, x1 = 0.35	3.26 mPa·s
303.15 K, 101 kPa, x1 = 0.48	2.884 mPa·s
303.15 K, 101 kPa, x1 = 0.73	2.115 mPa·s
303.15 K, 101.3 kPa, x1 = 0.012	0.88 mPa·s
303.15 K, 101.3 kPa, x2 = 0.1906	2.071 mPa·s
303.15 K, 101.3 kPa, x2 = 0.3252	2.348 mPa·s
303.15 K, 101.3 kPa, x2 = 0.5203	2.958 mPa·s
303.15 K, 101.3 kPa, x2 = 0.6501	3.218 mPa·s
303.15 K, 101.3 kPa, x2 = 0.743	2.942 mPa·s
303.15 K, 101.3 kPa, x2 = 0.8183	2.402 mPa·s
303.15 K, 101.3 kPa, x2 = 0.8668	1.941 mPa·s
303.15 K, 101.3 kPa, x2 = 0.9101	1.536 mPa·s
303.15 K, 101.3 kPa, x2 = 0.9751	0.981 mPa·s
308.15 K, 101 kPa, x1 = 0.05	1.065 mPa·s
308.15 K, 101 kPa, x1 = 0.15	1.942 mPa·s
308.15 K, 101 kPa, x1 = 0.25	2.606 mPa·s
308.15 K, 101 kPa, x1 = 0.35	2.84 mPa·s
308.15 K, 101 kPa, x1 = 0.48	2.512 mPa·s and 2.733 mPa·s
308.15 K, 101 kPa, x1 = 0.73	1.86 mPa·s
308.15 K, 101.3 kPa, x1 = 0.012	0.792 mPa·s
308.15 K, 101.3 kPa, x2 = 0.1906	1.876 mPa·s
308.15 K, 101.3 kPa, x2 = 0.3252	2.109 mPa·s
308.15 K, 101.3 kPa, x2 = 0.5203	2.607 mPa·s
308.15 K, 101.3 kPa, x2 = 0.6501	2.802 mPa·s
308.15 K, 101.3 kPa, x2 = 0.743	2.558 mPa·s
308.15 K, 101.3 kPa, x2 = 0.8183	2.097 mPa·s
308.15 K, 101.3 kPa, x2 = 0.8668	1.708 mPa·s
308.15 K, 101.3 kPa, x2 = 0.9101	1.36 mPa·s
308.15 K, 101.3 kPa, x2 = 0.9455	1.091 mPa·s
308.15 K, 101.3 kPa, x2 = 0.9751	0.879 mPa·s
313.15 K, 101 kPa, x1 = 0.01	0.72 mPa·s
313.15 K, 101 kPa, x1 = 0.01869	0.73 mPa·s
313.15 K, 101 kPa, x1 = 0.025	0.79 mPa·s
313.15 K, 101 kPa, x1 = 0.039	0.87 mPa·s
313.15 K, 101 kPa, x1 = 0.0406	0.85 mPa·s
313.15 K, 101 kPa, x1 = 0.05	0.981 mPa·s
313.15 K, 101 kPa, x1 = 0.055	0.96 mPa·s
313.15 K, 101 kPa, x1 = 0.071	1.07 mPa·s
313.15 K, 101 kPa, x1 = 0.09	1.19 mPa·s
313.15 K, 101 kPa, x1 = 0.11	1.33 mPa·s
313.15 K, 101 kPa, x1 = 0.13	1.5 mPa·s
313.15 K, 101 kPa, x1 = 0.15	1.704 mPa·s
313.15 K, 101 kPa, x1 = 0.16	1.69 mPa·s
313.15 K, 101 kPa, x1 = 0.19	1.89 mPa·s
313.15 K, 101 kPa, x1 = 0.25	2.296 mPa·s
313.15 K, 101 kPa, x1 = 0.26	2.24 mPa·s
313.15 K, 101 kPa, x1 = 0.3	2.39 mPa·s
313.15 K, 101 kPa, x1 = 0.35	2.521 mPa·s
313.15 K, 101 kPa, x1 = 0.41	2.48 mPa·s
313.15 K, 101 kPa, x1 = 0.48	2.22 mPa·s and 2.34 mPa·s
313.15 K, 101 kPa, x1 = 0.57	2.16 mPa·s
313.15 K, 101 kPa, x1 = 0.67	1.95 mPa·s
313.15 K, 101 kPa, x1 = 0.73	1.72 mPa·s
313.15 K, 101 kPa, x1 = 0.81	1.73 mPa·s
313.15 K, 101.3 kPa, x1 = 0.012	0.718 mPa·s
313.15 K, 101.3 kPa, x2 = 0.1906	1.709 mPa·s
313.15 K, 101.3 kPa, x2 = 0.3252	1.905 mPa·s
313.15 K, 101.3 kPa, x2 = 0.5203	2.313 mPa·s
313.15 K, 101.3 kPa, x2 = 0.6501	2.459 mPa·s
313.15 K, 101.3 kPa, x2 = 0.743	2.24 mPa·s
313.15 K, 101.3 kPa, x2 = 0.8183	1.848 mPa·s
313.15 K, 101.3 kPa, x2 = 0.8668	1.513 mPa·s
313.15 K, 101.3 kPa, x2 = 0.9101	1.214 mPa·s
313.15 K, 101.3 kPa, x2 = 0.9455	0.978 mPa·s
313.15 K, 101.3 kPa, x2 = 0.9751	0.794 mPa·s
318.15 K, 101 kPa, x1 = 0.055	0.847 mPa·s
318.15 K, 101 kPa, x1 = 0.48	2.066 mPa·s
318.15 K, 101 kPa, x2 = 0.047	1.423 mPa·s
318.15 K, 101 kPa, x2 = 0.089	1.457 mPa·s
318.15 K, 101 kPa, x2 = 0.186	1.553 mPa·s
318.15 K, 101 kPa, x2 = 0.522	2.083 mPa·s
318.15 K, 101 kPa, x2 = 0.59	2.164 mPa·s
318.15 K, 101.3 kPa, x1 = 0.012	0.654 mPa·s
318.15 K, 101.3 kPa, x2 = 0.5203	2.065 mPa·s
318.15 K, 101.3 kPa, x2 = 0.743	1.976 mPa·s
318.15 K, 101.3 kPa, x2 = 0.8183	1.637 mPa·s
318.15 K, 101.3 kPa, x2 = 0.8668	1.348 mPa·s
318.15 K, 101.3 kPa, x2 = 0.9101	1.09 mPa·s
318.15 K, 101.3 kPa, x2 = 0.9455	0.884 mPa·s
318.15 K, 101.3 kPa, x2 = 0.9751	0.722 mPa·s
323.15 K, 101 kPa, x1 = 0.01869	0.62 mPa·s
323.15 K, 101 kPa, x1 = 0.0406	0.71 mPa·s
323.15 K, 101.3 kPa, x1 = 0.012	0.6 mPa·s
323.15 K, 101.3 kPa, x2 = 0.1906	1.428 mPa·s
323.15 K, 101.3 kPa, x2 = 0.3252	1.577 mPa·s
323.15 K, 101.3 kPa, x2 = 0.5203	1.853 mPa·s
323.15 K, 101.3 kPa, x2 = 0.6501	1.931 mPa·s
323.15 K, 101.3 kPa, x2 = 0.743	1.754 mPa·s
323.15 K, 101.3 kPa, x2 = 0.8183	1.46 mPa·s
323.15 K, 101.3 kPa, x2 = 0.8668	1.211 mPa·s
323.15 K, 101.3 kPa, x2 = 0.9101	0.985 mPa·s
323.15 K, 101.3 kPa, x2 = 0.9455	0.805 mPa·s
323.15 K, 101.3 kPa, x2 = 0.9751	0.66 mPa·s
